Experimental data: ChEMBL document CHEMBL5728119, “1,2-dithiolane compounds useful in neuroprotection, autoimmune and cancer diseases and conditions” (2020)

Tests used:
[1] = target: Tyrosine-protein kinase Fyn (Homo sapiens, UniProt P06241); assay: (§1) Radioisotope Filter Binding Assay: IC50 Table 13-20: The protocol calls for test compound of the invention to be incubated with kinase, substrate, cofactors, and radio-isotope-labeled ATP (33P-gamma-ATP). The reaction mixtures are then spotted onto filter papers which bind the radioisotope labeled catalytic product. Unreacted phosphate is removed via washing. The reagents used include base reaction buffer; 20 mM Hepes (pH 7.5), 10 mM MgCl2, 1 mM EGTA, 0.02% Brij35, 0.02 mg/ml BSA, 0.1 mM Na3VO4, 2 mM DTT, 1% DMSO. The reaction procedure include the following steps: (1) prepare indicated substrate in freshly prepared base reaction buffer, (2) deliver any required cofactors to the substrate solution above, (3) deliver indicated kinase into the substrate solution and gently mix, (4) deliver compounds in DMSO into the kinase reaction mixture by Acoustic technology (Echo550; nanoliter range), incubate for 20 minutes at room temperature, (5) deliver 33P-ATP (specific activity 10 μCi/μL) into the reaction mixture to initiate the reaction, (6) incubate kinase reaction for 2 hours at room temperature, (7) reactions are spotted onto P81 ion exchange paper, (8) detect kinase activity by filter-binding method.
[2] = target: T1, Phosphatidylinositol 4,5-bisphosphate 3-kinase catalytic subunit delta isoform (Homo sapiens, UniProt O00329); assay: as §1
T1 sequence (O00329 whole entry): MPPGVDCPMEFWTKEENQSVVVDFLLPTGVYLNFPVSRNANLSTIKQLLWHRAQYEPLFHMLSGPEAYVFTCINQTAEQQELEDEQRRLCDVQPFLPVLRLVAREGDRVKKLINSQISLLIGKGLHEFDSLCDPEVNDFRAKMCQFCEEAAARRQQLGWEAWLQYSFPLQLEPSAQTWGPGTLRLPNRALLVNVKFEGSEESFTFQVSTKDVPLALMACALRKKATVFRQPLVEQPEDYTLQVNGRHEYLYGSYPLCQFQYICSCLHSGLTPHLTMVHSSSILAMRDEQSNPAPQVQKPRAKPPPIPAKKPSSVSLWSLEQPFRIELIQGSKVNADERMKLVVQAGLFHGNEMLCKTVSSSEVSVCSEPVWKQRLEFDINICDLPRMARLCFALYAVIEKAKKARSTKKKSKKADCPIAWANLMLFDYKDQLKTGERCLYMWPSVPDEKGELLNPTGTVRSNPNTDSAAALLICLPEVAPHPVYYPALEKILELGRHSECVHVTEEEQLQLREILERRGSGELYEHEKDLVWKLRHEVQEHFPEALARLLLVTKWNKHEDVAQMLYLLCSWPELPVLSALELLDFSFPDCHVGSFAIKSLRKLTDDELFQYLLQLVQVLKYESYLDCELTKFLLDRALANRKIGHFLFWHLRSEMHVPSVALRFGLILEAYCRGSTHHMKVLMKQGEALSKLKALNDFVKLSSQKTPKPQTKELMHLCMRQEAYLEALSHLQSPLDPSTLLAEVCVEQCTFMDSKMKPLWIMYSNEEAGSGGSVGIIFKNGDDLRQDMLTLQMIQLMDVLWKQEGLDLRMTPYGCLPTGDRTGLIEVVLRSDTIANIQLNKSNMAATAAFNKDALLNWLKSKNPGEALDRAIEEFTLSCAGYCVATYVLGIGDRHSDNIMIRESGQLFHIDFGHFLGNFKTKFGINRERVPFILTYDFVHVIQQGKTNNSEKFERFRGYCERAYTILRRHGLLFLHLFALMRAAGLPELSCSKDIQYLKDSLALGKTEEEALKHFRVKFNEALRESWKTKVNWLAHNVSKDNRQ

Sequence of Tyrosine-protein kinase Fyn (P06241 whole entry): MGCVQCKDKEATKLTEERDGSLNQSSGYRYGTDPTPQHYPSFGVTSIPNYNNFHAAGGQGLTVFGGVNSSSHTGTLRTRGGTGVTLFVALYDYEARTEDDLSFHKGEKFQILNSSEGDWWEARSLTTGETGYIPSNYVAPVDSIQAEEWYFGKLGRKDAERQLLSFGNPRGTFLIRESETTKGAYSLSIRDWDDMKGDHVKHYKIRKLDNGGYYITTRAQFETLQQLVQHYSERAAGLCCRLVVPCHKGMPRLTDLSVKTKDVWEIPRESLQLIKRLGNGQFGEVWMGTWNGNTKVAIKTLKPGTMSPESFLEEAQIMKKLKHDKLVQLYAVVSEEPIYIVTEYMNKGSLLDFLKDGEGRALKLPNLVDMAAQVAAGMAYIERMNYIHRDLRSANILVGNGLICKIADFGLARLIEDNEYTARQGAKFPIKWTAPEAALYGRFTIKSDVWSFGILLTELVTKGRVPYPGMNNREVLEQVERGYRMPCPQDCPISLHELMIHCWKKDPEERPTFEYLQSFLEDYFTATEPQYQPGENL

| Compound | IC50 [1] [nM] | IC50 [2] [nM] |
| --- | --- | --- |
| Nc1ncnc2c1c(-c1ccc(Oc3ccccc3)c(F)c1)nn2CC1SSCC1OC(=O)c1ccccc1 (configuration not stated) | 750 |  |
| Nc1nc2cc(-c3nn(C[C@@H]4SSC[C@H]4OC(=O)c4ccccc4)c4ncnc(N)c34)ccc2o1 (relative stereo) |  | 750 |
